Data from patent US20110184188A1, “Insecticidal Benzenedicarboxamide Derivative” (priority 2008, published 2011).

assay: logP(acid) by reverse phase (C18) chromatography at pH 2.3; format: physicochemical; settings: pH 2.3

Row | chromatographic logP | Compound
1 | 3.38 | Cc1cc(Cn2nc(C(F)(F)F)nc2C(F)(F)F)ncc1[N+](=O)[O-] [SYNTHESIS EXAMPLE 69-1]

same assay, conditions: pH 2.3; reverse phase (C18) chromatography, pH2.3, 0.1% phosphoric acid / acetonitrile gradient 10-95%; read-out: logP (acid)

Row | Compound | chromatographic logP
2 | Cc1nc(Cn2nnc(C(F)(F)C(F)(F)C(F)(F)F)n2)ccc1N [SYNTHESIS EXAMPLE 86-2] | 2.3

same assay, conditions: reverse phase (C18) chromatography at pH 2.3

Row | Compound | logP (acid) | Physical property logP (acid)
3 | COc1ccc(Br)c(C(=O)Nc2ccc(Cn3nc(C(F)(F)C(F)(F)F)cc3C(F)(F)F)nc2C)c1C(=O)N[C@@H](C)CSC [11-19] | logP (acid) 4.02 | 
4 | CNC(=O)c1cc(Cl)cc(Cl)c1C(=O)Nc1ccc(Cn2nc(C(F)(F)F)cc2C(F)(F)F)cc1C [12-1] | logP (acid) 3.69 | 
5 | CSC[C@H](C)NC(=O)c1c(Cl)cccc1C(=O)Nc1cnc(Cn2nc(C(F)(F)F)cc2C(F)(F)F)cc1C [13-175] | logP (acid) 3.52 | 
6 | CSC[C@H](C)NC(=O)c1c(Cl)ccc(Cl)c1C(=O)Nc1ccc(Cn2nc(C(F)(F)C(F)(F)F)nc2C(F)(F)F)cc1C [11-27] | logP (acid) 4.51 | 
7 | CSC[C@H](C)NC(=O)c1c(I)cccc1C(=O)Nc1ccc(Cn2nc(C(F)(F)C(F)(F)F)cc2C(F)(F)F)nc1C [13-157] | logP (acid) 4.39 | 
8 | CSC[C@H](C)NC(=O)c1c(Cl)ccc(Br)c1C(=O)Nc1ccc(Cn2nc(C(F)(F)C(F)(F)F)nc2C(F)(F)F)cc1C [11-30] | logP (acid) 4.28 | 
9 | Cc1cc(Cn2nc(C(F)(F)C(F)(F)F)nc2C(F)(F)F)ccc1NC(=O)c1cc(Cl)cc(Cl)c1C(=O)N[C@@H](C)C[S+](C)[O-] (some centres unmarked) [10-11] | logP (acid) 3.28 | 
10 | CSC[C@H](C)NC(=O)c1c(Cl)ccc(Cl)c1C(=O)Nc1ccc(Cn2nc(C(F)(F)F)nc2C(F)(F)F)cc1C [11-26] | logP (acid) 4.25 | 
11 | Cc1nc(Cn2nc(C(F)(F)C(F)(F)F)cc2C(F)(F)F)ccc1NC(=O)c1cccc(Cl)c1C(=O)N[C@@H](C)C[S+](C)[O-] (some centres unmarked) [13-70] | 2.86 | 
12 | CSC[C@H](C)NC(=O)c1c(Cl)cc(Cl)cc1C(=O)Nc1ccc(Cn2nc(C(F)(F)F)cc2C(F)(F)F)nc1C [10-1] | logP (acid) 4.18 | 
13 | Cc1nc(Cn2cc(C(F)(F)C(F)(F)F)c(C(F)(F)C(F)(F)F)n2)ccc1NC(=O)c1cccc(Br)c1C(=O)N[C@@H](C)CS(C)(=O)=O [13-141] | logP (acid) 3.52 | 
14 | CNC(=O)c1cc(Cl)cc(Cl)c1C(=O)Nc1ccc(Cn2nc(C(F)(F)F)nc2C(F)(F)F)cc1C [12-4] | logP (acid) 3.39 | 
15 | CSC[C@H](C)NC(=O)c1c(I)ccc(F)c1C(=O)Nc1ccc(Cn2nc(C(F)(F)F)cc2C(F)(F)F)nc1C [11-1] | logP (acid) 3.72 | 
16 | Cc1cc(Cn2nc(C(F)(F)C(F)(F)F)nc2C(F)(F)F)ccc1NC(=O)c1c(Cl)ccc(Cl)c1C(=O)N[C@@H](C)CS(C)(=O)=O [11-29] | logP (acid) 3.50 | 

Next, values leading:

Row | logP (acid) | Physical property logP (acid) | Compound
17 | 3.50 |  | CSC[C@H](C)NC(=O)c1c(Cl)cccc1C(=O)Nc1ccc(Cn2c(C(F)(F)F)nc(Cl)c2Cl)nc1C [13-502]
18 |  | logP (acid) 2.59 | Cc1nc(Cn2nc(C(F)(F)C(F)(F)F)nc2C(F)(F)F)ccc1NC(=O)c1cccc(Cl)c1C(=O)NC(C)C[S+](C)[O-] (centres unmarked) [14-60]
19 | 2.48 |  | Cc1nc(Cn2nc(C(F)F)c(Cl)c2C(F)F)ccc1NC(=O)c1cccc(Cl)c1C(=O)N[C@@H](C)CS(C)(=O)=O [13-76]

same assay, conditions: reverse phase (C18) chromatography at pH2.3, 0.1% phosphoric acid aqueous solution / acetonitrile gradient

Row | logP (acid) | Compound
20 | logP (acid) 4.13 | CSC[C@H](C)NC(=O)c1c(Cl)cccc1C(=O)Nc1cc(F)c(Cn2nc(C(F)(F)F)cc2C(F)(F)F)nc1C [7-150]

same assay, conditions: reverse phase (C18) chromatography at pH2.3, 0.1% phosphoric acid aqueous solution / acetonitrile, linear gradient 10-95%

Row | Compound | logP (acid)
21 | CSC[C@H](C)NC(=O)c1c(Cl)cccc1C(=O)Nc1cccc(Cn2nc(C(F)(F)C(F)(F)F)nc2-c2ccc(C(F)(F)F)cc2)c1C [4-10] | logP (acid) 4.44
22 | CSC[C@H](C)NC(=O)c1c(Cl)cccc1C(=O)Nc1cccc(Cn2nnc(-c3ccc(C(F)(F)F)cc3)n2)c1 [4-16] | logP (acid) 3.86

same assay, conditions: reverse phase (C18) chromatography, pH 2.3

Row | Compound | logP (acid)
23 | CSC[C@H](C)NC(=O)c1c(SC)cccc1C(=O)Nc1ccc(Cn2nc(C(F)(F)C(F)(F)F)cc2C(F)(F)C(F)(F)F)nc1C [13-342] | logP (acid) 4.45
24 | CSC[C@H](C)NC(=O)c1c(SC)cccc1C(=O)Nc1ccc(Cn2nc(C(F)(F)C(F)(F)F)cc2C(F)(F)F)cc1C [13-310] | logP (acid) 4.74
25 | CSC[C@H](C)NC(=O)c1c(I)cccc1C(=O)Nc1ccc(Cn2nc(C(F)(F)F)cc2C(F)(F)C(F)(F)F)nc1C [13-239] | logP (acid) 4.27
26 | Cc1cc(Cn2nc(C(F)(F)F)cc2C(F)(F)F)ccc1NC(=O)c1cccc(Cl)c1C(=O)NC(C)CN(C)C (centres unmarked) [13-191] | logP (acid) 1.81
27 | CCC(CC#N)NC(=O)c1c(Cl)cccc1C(=O)Nc1ccc(Cn2nc(C(F)(F)F)cc2C(F)(F)F)cc1C (centres unmarked) [13-277] | logP (acid) 3.42
28 | CSC[C@H](C)NC(=O)c1c(C(=O)Nc2ccc(Cn3nc(C(F)(F)C(F)(F)F)cc3C(F)(F)F)cc2C)cccc1S(C)(=O)=O [13-311] | logP (acid) 4.20
29 | CCS(=O)(=O)c1cccc(C(=O)Nc2ccc(Cn3nc(C(F)(F)F)cc3C(F)(F)F)cc2C)c1C(=O)N[C@@H](C)CSC [13-346] | logP (acid) 3.74

Continued, values first:

Row | logP (acid) | Compound
30 | logP (acid) 3.70 | CC(=O)CC(C)NC(=O)c1c(I)cccc1C(=O)Nc1ccc(Cn2nc(C(F)(F)C(F)(F)F)nc2C(F)(F)F)cc1C (centres unmarked) [14-297]
31 | logP (acid) 3.54 | CSC[C@H](C)NC(=O)c1c(C(=O)Nc2ccc(Cn3nc(C(F)(F)F)nc3C(F)(F)F)cc2C)cccc1S(=O)(=O)N(C)C [14-414]
32 | logP (acid) 2.02 | CSCC(C)NC(=O)c1c(C(=O)Nc2ccc(C(O)c3cc(C(F)(F)C(F)(F)F)n[nH]3)cc2C)cccc1S(C)(=O)=O (mixture of isomers) [13-341]
33 | logP (acid) 2.98 | CSC[C@H](C)NC(=O)c1c(Cl)cccc1C(=O)Nc1ccc(Oc2cc(C(F)(F)F)n(C)n2)nc1C [13-228]
34 | logP (acid) 2.91 | Cc1nc(N(C)c2c(C(F)(F)F)c(C(F)(F)C(F)(F)F)nn2C)ccc1NC(=O)c1cccc(Cl)c1C(=O)N[C@@H](C)C[S+](C)[O-] (some centres unmarked) [13-354]
35 | logP (acid) 5.09 | CSC[C@H](C)NC(=O)c1c(Cl)cccc1C(=O)Nc1ccc(Nc2c(SC(F)(F)F)c(C(F)(F)F)nn2-c2c(Cl)cc(C(F)(F)F)cc2Cl)nc1C [13-227]
36 | logP (acid) 1.82 | Cc1cc(Cn2nc(C(F)(F)C(F)(F)F)n(N)c2=O)ccc1NC(=O)c1cccc(Cl)c1C(=O)N[C@@H](C)C[S+](C)[O-] (some centres unmarked) [14-422]
37 | logP (acid) 2.76 | Cc1nc(Cn2nc(C(F)(F)C(F)(F)F)nc2C(F)(F)F)ccc1NC(=O)c1cccc(S(C)(=O)=O)c1C(=O)N[C@@H](C)CS(C)(=O)=O [14-396]
38 | logP (acid) 2.72 | Cc1nc(Cn2nc(C(F)(F)F)nc2C(F)(F)F)ccc1NC(=O)c1cccc(S(=O)(=O)N(C)C)c1C(=O)N[C@@H](C)CS(C)(=O)=O [14-369]
39 | logP (acid) 2.4 | Cc1nc(Cn2nc(C(F)(F)F)cc2C(F)(F)F)ccc1NC(=O)c1c(Cl)cccc1C(=O)NC(C)CN(C)C (centres unmarked) [13-283]
40 | logP (acid) 3.23 | Cc1cc(Cn2nnc(-c3ccc(C(F)(F)F)cc3)n2)ccc1NC(=O)c1cccc(Cl)c1C(=O)N[C@@H](C)CS(C)(=O)=O [14-349]
41 | logP (acid) 3.26 | CSC[C@H](C)NC(=O)c1c(Cl)cccc1C(=O)Nc1cnc(Cn2nc(C(F)(F)F)nc2C(F)(F)F)cc1C [14-268]
42 | logP (acid) 3.34 | CSC[C@H](C)NC(=O)c1c(C(=O)Nc2ccc(Cn3nc(C(F)(F)C(F)(F)F)nc3C(F)(F)F)nc2C)cccc1S(C)(=O)=O [14-393]
43 | logP (acid) 4.46 | CSC[C@H](C)NC(=O)c1c(Cl)cccc1C(=O)Nc1ccc(Cn2cc(C(=O)C(F)(F)C(F)(F)F)c(C(F)(F)C(F)(F)F)n2)cc1C [13-205]
44 | logP (acid) 3.28 | Cc1nc(Cn2nc(C(F)(F)F)cc2C(F)(F)F)ccc1NC(=O)c1c(Cl)cccc1C(=O)NC1CCS(=O)(=O)C1 (centres unmarked) [13-276]
45 | logP (acid) 3.3 | CSC[C@H](C)NC(=O)c1c(SC)cccc1C(=O)Nc1cnc(Cn2nc(C(F)(F)F)nc2C(F)(F)F)cc1C [14-415]
46 | logP (acid) 4.41 | Cc1nc(Cn2nc(C(F)(F)F)cc2C(F)(F)F)ccc1NC(=O)c1c(Cl)cccc1C(=O)NC1=NN(c2ccccc2)C(=O)C1 [13-281]
47 | logP (acid) 2.25 | Cc1nc(Cn2nc(C(F)(F)F)nc2C(F)(F)F)ccc1NC(=O)c1cccc(S(=O)(=O)N(C)C)c1C(=O)N[C@@H](C)C[S+](C)[O-] (some centres unmarked) [14-367]
48 | logP (acid) 2.91 | CSC[C@H](C)NC(=O)c1c(Cl)cccc1C(=O)Nc1ccc(Cn2nnc(C(F)(F)F)n2)nc1C [14-306]
49 | logP (acid) 2.85 | Cc1cc(Cn2nc(C(F)(F)C(F)(F)F)n(C(F)F)c2=O)ccc1NC(=O)c1cccc(Cl)c1C(=O)N[C@@H](C)CS(C)(=O)=O [14-330]
50 | logP (acid) 2.43 | Cc1nc(Cn2nc(C(F)(F)F)nc2C(F)(F)F)ccc1NC(=O)c1cccc(S(C)(=O)=O)c1C(=O)N[C@@H](C)CS(C)(=O)=O [14-368]
51 | logP (acid) 2.98 | CSC[C@H](C)NC(=O)c1c(C(=O)Nc2ccc(Cn3nc(C(F)(F)F)nc3C(F)(F)F)nc2C)cccc1S(C)(=O)=O [14-364]
52 | logP (acid) 2.57 | CSC[C@H](C)NC(=O)c1c(Cl)cccc1C(=O)Nc1ccc(Cn2nc(C(F)(F)F)n(C3CC3)c2=O)nc1C [14-323]

same assay, conditions: reverse phase (C18) chromatography, pH2.3, 0.1% phosphoric acid aqueous solution / acetonitrile, linear gradient 10-95% acetonitrile

Row | logP (acid) | Compound
53 | logP (acid) 4.25 | CSC[C@H](C)NC(=O)c1c(C(=O)Nc2ccc(Cn3nc(C(F)(F)F)cc3C(F)(F)F)nc2C)ccc(C(F)(F)F)c1Cl [9-26]
54 | logP (acid) 3.70 | Cc1cc(Cn2nc(C(F)(F)C(F)(F)F)nc2C(F)(F)F)ccc1NC(=O)c1ccc(C(F)(F)F)c(Cl)c1C(=O)N[C@@H](C)CS(C)(=O)=O [9-25]
55 | logP (acid) 4.63 | CSC[C@H](C)NC(=O)c1c(C(=O)Nc2ccc(Cn3nc(C(F)(F)C(F)(F)F)nc3C(F)(F)F)cc2C)ccc(C(F)(F)F)c1Cl [9-23]
56 | logP (acid) 4.29 | CSC[C@H](C)NC(=O)c1c(C(=O)Nc2ccc(Cn3nc(C(F)(F)C(F)(F)F)nc3C(F)(F)F)cc2C)ccc(F)c1Br [9-12]
